“And” between values parts separate entries of the source, which are not always exact repeats. Equal values may be shown once. The source made the active and inactive calls. The rule behind the calls is not given here.

The target in experiment [1] is T1, Heat shock protein HSP90 (Homo sapiens, UniProt P07900+P08238). Kind of experiment: Inhibition of Hsp90 (unknown origin). It counts as protein assay.
For experiment [2], the system named is MDA-MB-231. Kind of experiment: Cytotoxicity against human MDA-MB-231 cells by MTT assay. It counts as functional, cell-based.
The test system of experiment [3] is ES-2. Kind of experiment: Cytotoxicity against human ES2 cells by MTT assay. It counts as functional, cell-based. For orientation: Formazan colour is commonly taken as a measure of viable cells.
A short description of experiment [4]: Cytotoxicity against human 95-D cells by MTT assay. Format: functional, cell-based.
The subject of experiment [5] is A549. The experiment can be described thus: Cytotoxicity against human A549 cells by MTT assay. Format: functional, cell-based.
The subject of experiment [6] is MCF7. Kind of experiment: Cytotoxicity against human MCF7 cells by MTT assay. It counts as functional, cell-based.
In experiment [7] the test system is HeLa. The experiment can be described thus: Cytotoxicity against human HeLa cells by MTT assay. Format: functional, cell-based.
In experiment [8] the test system is A549. The experiment can be described thus: Induction of cell cycle arrest in human A549 cells assessed as accumulation at G2/G1 phase at 10 nM incubated for 48 hrs by flow cytometry (reference value: 2 %). It counts as functional. Background: A flow cytometer gives signals particle by particle.
The subject of experiment [9] is A549. The experiment can be described thus: Induction of apoptosis in human A549 cells assessed as viable cells at 50 nM incubated for 48 hrs by annexin V-FITC/7-AAD staining based flow cytometry (reference value: 96.1 %). Format: functional. The settings on record: read-out: Activity.
Experiment [10] has as its system A549. Kind of experiment: Induction of apoptosis in human A549 cells assessed as viable cells at 200 nM incubated for 48 hrs by annexin V-FITC/7-AAD staining based flow cytometry (reference value: 96.1 %). Format: functional. The settings on record: read-out: Activity.
For experiment [11], the system named is A549. Kind of experiment: Induction of apoptosis in human A549 cells assessed as late apoptotic cells at 50 nM incubated for 48 hrs by annexin V-FITC/7-AAD staining based flow cytometry (reference value: 0.64 %). It counts as functional.
In experiment [12] the test system is A549. The experiment can be described thus: Induction of apoptosis in human A549 cells assessed as necrotic cells at 10 nM incubated for 48 hrs by annexin V-FITC/7-AAD staining based flow cytometry (reference value: 0.92 %). It counts as functional.
The test system of experiment [13] is A549. The experiment can be described thus: Induction of apoptosis in human A549 cells assessed as early apoptotic cells at 50 nM incubated for 48 hrs by annexin V-FITC/7-AAD staining based flow cytometry (reference value: 0.32 %). It counts as functional.
Experiment [14] relates to A549. The experiment can be described thus: Induction of apoptosis in human A549 cells assessed as early apoptotic cells at 200 nM incubated for 48 hrs by annexin V-FITC/7-AAD staining based flow cytometry (reference value: 0.32 %). Format: functional.
Experiment [15] relates to A549. Kind of experiment: Induction of apoptosis in human A549 cells assessed as viable cells at 10 nM incubated for 48 hrs by annexin V-FITC/7-AAD staining based flow cytometry (reference value: 96.1 %). It counts as functional. The settings on record: read-out: Activity.
For experiment [16], the system named is A549. Kind of experiment: Induction of cell cycle arrest in human A549 cells assessed as accumulation at G2 phase at 10 nM incubated for 48 hrs by flow cytometry (reference value: 2.53 %). Format: functional.
Experiment [17] deals with A549. Kind of experiment: Induction of cell cycle arrest in human A549 cells assessed as accumulation at G1 phase at 50 nM incubated for 48 hrs by flow cytometry (reference value: 61.70 %). Format: functional.
For experiment [18], the system named is A549. The experiment can be described thus: Induction of cell cycle arrest in human A549 cells assessed as accumulation at G2 phase at 200 nM incubated for 48 hrs by flow cytometry (reference value: 2.53 %). Format: functional.
In experiment [19] the target is T1, Heat shock protein HSP90. The experiment can be described thus: Inhibition of Hsp90 in human A549 cells assessed as upregulation of Hsp70 level at 25 to 100 nM by Western blot analysis. Format: cell-based. The conditions noted are these: dose 25-100 nM. (In western blotting, separated proteins are transferred to a membrane and probed.)
The test system of experiment [20] is A549. Kind of experiment: Anti-migration activity in human A549 cells at 0.3 to 3 nM incubated for 48 hrs by scratch wound healing assay. The conditions noted are these: dose 0.3-3 nM. It counts as functional, cell-based.
Experiment [21] addresses T1, Heat shock protein HSP90. The experiment can be described thus: Inhibition of Hsp90 in human A549 cells assessed as downregulation of CDK4 level by Western blot analysis. Format: cell-based. The conditions noted are these: dose 25-100 nM.
Experiment [22] has as its system A549. The experiment can be described thus: Induction of apoptosis in human A549 cells assessed as necrotic cells at 200 nM incubated for 48 hrs by annexin V-FITC/7-AAD staining based flow cytometry (reference value: 0.92 %). Format: functional.
Experiment [23] concerns A549. Kind of experiment: Induction of cell cycle arrest in human A549 cells assessed as accumulation at S phase at 50 nM incubated for 48 hrs by flow cytometry (reference value: 35.77 %). It counts as functional.
Experiment [24] concerns A549. The experiment can be described thus: Induction of apoptosis in human A549 cells assessed as late apoptotic cells at 200 nM incubated for 48 hrs by annexin V-FITC/7-AAD staining based flow cytometry (reference value: 0.64 %). Format: functional.
The subject of experiment [25] is A549. The experiment can be described thus: Induction of cell cycle arrest in human A549 cells assessed as accumulation at S phase at 10 nM incubated for 48 hrs by flow cytometry (reference value: 35.77 %). It counts as functional.
In experiment [26] the test system is A549. Kind of experiment: Induction of cell cycle arrest in human A549 cells assessed as accumulation at G1 phase at 10 nM incubated for 48 hrs by flow cytometry (reference value: 61.70 %). Format: functional.
Experiment [27] has as its system A549. Kind of experiment: Inhibition of colony formation in human A549 cells. The settings on record: dose 10-20 nM. It counts as functional, cell-based.
The test system of experiment [28] is A549. Kind of experiment: Induction of apoptosis in human A549 cells assessed as late apoptotic cells at 10 nM incubated for 48 hrs by annexin V-FITC/7-AAD staining based flow cytometry (reference value: 0.64 %). Format: functional.
Experiment [29] relates to A549. The experiment can be described thus: Induction of cell cycle arrest in human A549 cells assessed as accumulation at G2/G1 phase at 50 nM incubated for 48 hrs by flow cytometry (reference value: 2 %). It counts as functional.
Experiment [30] relates to A549. Kind of experiment: Induction of cell cycle arrest in human A549 cells assessed as accumulation at S phase at 200 nM incubated for 48 hrs by flow cytometry (reference value: 35.77 %). It counts as functional.
The subject of experiment [31] is A549. The experiment can be described thus: Induction of apoptosis in human A549 cells assessed as early apoptotic cells at 10 nM incubated for 48 hrs by annexin V-FITC/7-AAD staining based flow cytometry (reference value: 0.32 %). It counts as functional.
Experiment [32] has as its target T1, Heat shock protein HSP90. Kind of experiment: Inhibition of Hsp90 in human A549 cells assessed as downregulation of HER2 level by Western blot analysis. Format: cell-based. The conditions noted are these: dose 25-100 nM.
Experiment [33] has as its system A549. The experiment can be described thus: Induction of cell cycle arrest in human A549 cells assessed as accumulation at G2/G1 phase at 200 nM incubated for 48 hrs by flow cytometry (reference value: 2 %). It counts as functional.
The test system of experiment [34] is A549. The experiment can be described thus: Induction of cell cycle arrest in human A549 cells assessed as accumulation at G1 phase at 200 nM incubated for 48 hrs by flow cytometry (reference value: 61.70 %). Format: functional.
For experiment [35], the system named is A549. The experiment can be described thus: Induction of cell cycle arrest in human A549 cells assessed as accumulation at G2 phase at 50 nM incubated for 48 hrs by flow cytometry (reference value: 2.53 %). Format: functional.
For experiment [36], the system named is A549. The experiment can be described thus: Induction of apoptosis in human A549 cells assessed as necrotic cells at 50 nM incubated for 48 hrs by annexin V-FITC/7-AAD staining based flow cytometry (reference value: 0.92 %). It counts as functional.

By IC50 is commonly meant the concentration that gives 50% inhibition. High values mean weaker potency in that assay, low ones greater potency in that assay. `CCNC(=O)c1noc(-c2cc(C(C)C)c(O)cc2O)c1-c1ccc([N+](=O)[O-])cc1`: the half-maximal inhibitory concentration (IC50) amounted to 15 nM in experiment [1]; 5.26 nM in experiment [2]; 12.4 nM in experiment [3]; 2.91 nM in experiment [4]; 16.2 nM in [5]; 2.89 nM in experiment [6]. The compound also returned an IC50 in experiment [7] of 19 nM.
Take `CCNC(=O)c1noc(-c2cc(C(C)C)c(O)cc2O)c1-c1ccc(P(C)(C)=O)cc1`: the IC50 in experiment [1] is 171 nM; in experiment [2] it was 214 nM; in experiment [3], 156 nM; in experiment [4] it was 676 nM; in [5], 730 nM; in [6] it was 230 nM. This compound had a half-inhibitory concentration (IC50) in [7] of 210 nM.
With `CCNC(=O)c1noc(-c2cc(C(C)C)c(O)cc2O)c1-c1ccc(S(C)(=O)=O)cc1`, the IC50 in experiment [1] came to 9 nM; in experiment [2], 2.81 nM; in experiment [3], 8.6 nM; in experiment [4], 1.69 nM; in experiment [5], 8.65 nM; in experiment [6], 1.35 nM. In [7], this compound displayed an IC50 of 2 nM. Also, the Activity turned out to be 2% in experiment [8]; 3.1% in experiment [11]; 0.59% in [12]; 1.7% in experiment [13]; 5.98% in experiment [14]; 3.19% in experiment [16]. For the same compound, the Activity in [17] was 70.94%; in [18] it was 14.76%; in [22], 2.94%; in [23], 15.68%; in experiment [24] (48 h, 0.2 µM), 2.74% and 8.59%; in experiment [25], 41.43%. The Activity in experiment [26] amounted to 55.38%; in [28] it was 1.15%; in experiment [29] it was 2%; in [30] it was 6.98%; in [31], 2.74%; in experiment [33], 2%. The values for the Activity in [34], in experiment [35] and in [36] were 78.26%, 13.38% and 2.24%, respectively. The viability at 0.05 µM in [9] was 93%. For the same compound, in [10], the viability at 0.2 µM worked out at 82.5%. Further, the viability at 0.01 µM in experiment [15] was determined as 95.5%. In experiment [19], the inhibition entry is “Active”. Moreover, in experiment [20], the result was Active. Also, the inhibition result in experiment [21], in experiment [27] and in experiment [32] was “Dose-Dependent Effect” each time.
As for `COC1=C2C[C@@H](C)C[C@H](OC)[C@H](O)[C@@H](C)/C=C(\C)[C@H](OC(N)=O)[C@@H](OC)/C=C\C=C(/C)C(=O)NC(=CC1=O)C2=O` [GELDANAMYCIN], the viability at 0.05 µM in experiment [9] stood at 93.3%. Further, the viability at 0.2 µM in [10] turned out to be 90.6%. For the same compound, the Activity is 2.58% in [11]; 1.78% in experiment [13]; 3.26% in experiment [14]; 60.64% in experiment [17]; 9.03% in experiment [18]; 2.38% in experiment [22]. Moreover, the Activity in [23] is 35.64%; in [24], 3.77%; in [29], 2%; in experiment [30], 22%; in experiment [33], 2%; in experiment [34], 68.97%. For the same compound, the Activity was found to be 3.72% in experiment [35] and 2.31% in experiment [36].
Take `CCNC(=O)c1noc(-c2cc(Cl)c(O)cc2O)c1-c1ccc(OC)cc1`: the IC50 was 75.8 nM in experiment [2]; 50.4 nM in experiment [3]; 223 nM in experiment [5]; 69.6 nM in experiment [6]; 219 nM in [7].

Values taken from ChEMBL document CHEMBL5321257, “Development of VER-50589 analogs as novel Hsp90 inhibitors” (Bioorg Med Chem Lett, 2023).
